Laboratory results from US4705900A, “Insecticidal alkenes” (Imperial Chemical Industries PLC, priority 1985, dated 1987).

Tests used:
Tetranychus urticae = assay: mortality of red spider mites (TU), contact test; type: in vivo, Tetranychus urticae (red spider mites - adult); conditions: Tetranychus urticae, 72 h, 500 ppm, French bean leaf, 3 days, read-out: grading of mortality, TU
Protocol: (§1) The activity of the Product was determined using a variety of insect pests. The Product was used in the form of liquid preparations containing 500 or 100 parts per million (ppm) by weight of the Product. The preparations were made by dissolving the Product in acetone and diluting the solutions with water containing 0.01% by weight of a wetting agent sold under the trade name "LISSAPOL" NX until the liquid preparations contained the required concentration of the Product. "Lissapol" is a Registered Trade Mark.
(§2) The test procedure adopted with regard to each pest was basically the same and comprised supporting a number of the pests on a medium which was usually a host plant or a foodstuff on which the pests feed, and treating either or both the pests and the medium with the preparations. The mortality of the pests was then assessed at periods usually varying from one to three days after the treatment.
(§3) The results of the tests are given in Table IV for each of the Products, at the rate in parts per million given in the second column as a grading of mortality designated as A, B or C wherein A indicates 80-100% mortality or knockdown, B indicates 50-79% mortality or knockdown and C indicates less than 50% mortality or knockdown.
(§4) In Table IV the pest organism used is designated by a letter code and the pests species, the support medium or food, and the type and duration of test is given in Table III.
(red spider mites - adult)

Myzus persicae = assay: mortality of aphids (MP), contact test; type: in vivo, Myzus persicae (aphids); conditions: 500 ppm, leaf, 2 days; for mortality at 500 ppm: Myzus persicae, 48 h, read-out: grading of mortality, MP
Protocol: as §1, §2, §3, §4

Nilaparvata lugens = assay: mortality of green leaf hopper (NL), contact test; type: in vivo, Nilaparvata lugens (brown planthopper); conditions: 500 ppm, cabbage leaf, 6 days; for mortality at 500 ppm: Nilaparvata lugens, in Brassica oleracea, 144 h, read-out: grading of mortality, NL
Protocol: as §1, §2, §3, §4

Musca domestica [1] = assay: knockdown of houseflies (MD/KD); type: in vivo, Musca domestica (houseflies - adults); conditions: Musca domestica, 500 ppm, cotton wool/sugar, 4 hours, read-out: grading of knockdown, MD/KD
Protocol: as §1, §2
In case of the species Musca domestica (housefly), additional tests to determine the knockdown effect of the compounds were performed.
as §3, §4

Musca domestica [2] = assay: mortality of houseflies (MD), contact test; type: in vivo, Musca domestica (houseflies - adults); conditions: Musca domestica, 24 h, 500 ppm, cotton wool/sugar, 1 day, read-out: grading of mortality, MD
Protocol: as §1, §2, §3, §4

Blattella germanica = assay: mortality of cockroach nymphs (BG), residual test; type: in vivo, Blattella germanica (cockroach nymphs); conditions: Blattella germanica, 72 h, 500 ppm, plastic pot, 3 days, read-out: grading of mortality, BG
Protocol: as §1, §2, §3, §4

Heliothis viriscens = assay: whole plant or invertebrate; type: in vivo, Heliothis viriscens (tobacco budworm); conditions: in Gossypium hirsutum, 72 h, read-out: grading of mortality, HV
Protocol: as §1, §2, §3, §4

Chilo partellurs = assay: mortality of stem borers (CP), residual test; type: in vivo, Chilo partellurs (Stem borers); conditions: Chilo, 72 h, 500 ppm, oil seed rape leaf, 3 days, read-out: grading of mortality, CP
Protocol: as §1, §2, §3, §4

Diabrotica balteata = assay: mortality of rootworm larvae (DB), residual test; type: in vivo, Diabrotica balteata (rootworm larvae); conditions: 500 ppm, filter paper/maize seed, 3 days; for mortality at 500 ppm: Diabrotica balteata, in Zea mays, 72 h, read-out: grading of mortality, DB
Protocol: as §1, §2, §3, §4

SMILES	mortality at 500 ppm (Tetranychus urticae) [%]	mortality at 500 ppm (Myzus persicae) [%]	mortality at 500 ppm (Nilaparvata lugens) [%]	pest or weed control at 500 ppm (Musca domestica [1]) [%]	mortality at 500 ppm (Musca domestica [2]) [%]	mortality at 500 ppm (Blattella germanica) [%]	mortality at 500 ppm (Heliothis viriscens) [%]	mortality at 500 ppm (Chilo partellurs) [%]	mortality at 500 ppm (Diabrotica balteata) [%]	grading of mortality, MP (Myzus persicae; 2880 min)	grading of mortality, NL (Nilaparvata lugens; 8640 min)	grading of mortality, DB (Diabrotica balteata; 4320 min)
CC(C)(/C=C\c1ccc(Cl)cc1)COCc1cccc(Oc2ccccc2)c1 [Compound 2, 3,3-Dimethyl-1-(4-chlorophenyl)-4-(3-phenoxybenzyloxy)but-1-ene]	< 50	< 50	< 50	< 50	< 50	< 50	< 50	50 to 79	< 50	–	–	–
CCOc1ccc(/C=C\C(C)(C)COCc2cccc(Oc3ccccc3)c2)cc1 [Compound 3, 3,3-Dimethyl-1-(4-ethoxyphenyl)-4-(3-phenoxybenzyloxy)but-1-ene]	< 50	< 50	< 50	< 50	< 50	< 50	< 50	< 50	< 50	–	–	–
CC(C)(C=Cc1ccccc1F)COCc1cccc(Oc2ccccc2)c1 [Compound 16, 3,3-Dimethyl-1-(2-fluorophenyl)-4-(3-phenoxybenzyloxy)but-1-ene]	< 50	< 50	< 50	< 50	< 50	< 50	< 50	< 50	< 50	–	–	–
CC(C)(C=Cc1ccc(Cl)cc1)COCc1cccc(Oc2ccccc2)c1 [Compound 1, 3,3-Dimethyl-1-(4-chlorophenyl)-4-(3-phenoxybenzyloxy)but-1-ene]	50 to 79	–	–	80 to 100	50 to 79	< 50	80 to 100	80 to 100	–	C (C indicates less than 50% mortality or knockdown)	B (B indicates 50-79% mortality or knockdown)	C (C indicates less than 50% mortality or knockdown)
COc1ccc(/C=C/C(C)(C)COCc2ccc(F)c(Oc3ccccc3)c2)cc1 [Compound 24, 3,3-dimethyl-1-(4-methoxyphenyl)-4-(4-fluoro-3-phenoxybenzyloxy)but-1-ene]	50 to 79	50 to 79	80 to 100	80 to 100	80 to 100	< 50	50 to 79	80 to 100	< 50	–	–	–
CC(C)(C=Cc1ccc(F)cc1)COCc1cccc(Oc2ccccc2)c1 [Compound 11, 3,3-Dimethyl-1-(4-fluorophenyl)-4-(3-phenoxybenzyloxy)but-1-ene]	< 50	< 50	80 to 100	80 to 100	50 to 79	< 50	80 to 100	80 to 100	50 to 79	–	–	–
CC(C)(C=Cc1ccc(Cl)cc1)COCc1ccc(F)c(Oc2ccccc2)c1 [Compound 7, 3,3-Dimethyl-1-(4-chlorophenyl)-4-(4-fluoro-3-phenoxybenzyloxy)but-1-ene]	< 50	80 to 100	< 50	80 to 100	80 to 100	< 50	80 to 100	80 to 100	80 to 100	–	–	–
